As usually defined, the GI50 is the concentration at which growth is held to half of that of the control. A word on the IC50: it is the point on the concentration scale where inhibition reaches its midpoint.

“Also recorded” adds a separate entry of the source. Where two headings read alike, the source gives them in different places. Some results are limits rather than exact numbers.

Data on 10 compounds can be found in patent US20180291043A1, “BENZOCYCLOOCTENE-BASED AND INDENE-BASED ANTICANCER AGENTS” (BAYLOR UNIVERSITY, priority 2016, published 2018).

In one data set the test system is NCI-H460. As to the kind of experiment: SRB assay, growth inhibition, NCI-H460. The class given is cell-based, human. To be noted: 48 h treatment, average of n ≥ 3. The method, then:
(§1) Inhibition of growth of human cancer cells was assessed using the sulforhodamine B assay (SRB), as described in Monks et al., 1991. Cancer cell lines (DU-145, SK-OV-3, and NCI-H460) were plated at 7500-8000 cells/well into 96-well plates using DMEM supplemented with 5% fetal bovine serum/1% gentamicin sulfate and incubated for 24 h at 37° C. in a humidified incubator. Compound serial dilutions were then added. After 48 h treatment, the cells were fixed with trichloroacetic acid (10% final concentration), washed, dried, stained with sulforhodamine B dye (Acid red 52), washed to remove excess dye, and dried. SRB dye was solubilized, and absorbances were measured at wavelength 540 nm and normalized to values at wavelength 630 nm using an automated Biotek plate reader.

Another data set relates to DU-145. The experiment in a line: SRB assay, growth inhibition, DU-145. The conditions noted are these: 48 h treatment, average of n ≥ 3. In kind it is cell-based, human. The method, then:
as §1
In general terms: In SRB staining, fixed cells bind dye roughly in proportion to their protein.

A further data set has as its system SK-OV-3. As to the kind of experiment: SRB assay, growth inhibition, SK-OV-3. The class given is cell-based, human. To be noted: 48 h treatment, average of n ≥ 3. The method, then: as §1
Data set [1] concerns MCF7-luc-GFP-mCherry breast tumor. The experiment in a line: Bioluminescence imaging (BLI) of vascular disruption in tumor-bearing mice. In kind it is in vivo, SCID mice. To be noted: for reduction in bioluminescence (decrease compared to baseline or saline control): single dose 120 mg/kg ip, 4 h after compound injection, p<0.05. The method, then: Human breast cancer cells, MCF7-luc-GFP-mCherry (ATCC), were transfected sequentially with a lentivirus containing firefly luciferase reporter, GFP and mCherry reporter genes, as described in Liu et al., 2012. Highly expressing stable clones were isolated. Induction of tumors was carried out by injecting 10^6 cells mixed with 50% Matrigel™ (BD Biosciences, San Jose, Calif.) into the right upper ventral mammary fat pads of female SCID-NOD mice (UTSW breeding colony). Tumors were allowed to grow to a size of 10-12 mm in diameter, determined by calipers, before selection for BLI. All animal procedures were approved by the University of Texas Southwestern Medical Center Institutional Animal Care and Use Committee.
Bioluminescence imaging was carried out as described in Liu et al., 2012. Briefly, anesthetized, tumor bearing mice (O2, 2% isoflurane, Henry Schein Inc., Melville, N.Y.) were injected subcutaneously in the fore-back neck region with 80 μL of a solution of luciferase substrate, D-luciferin (sodium salt, 120 mg/kg, in saline, Gold Biotechnology, St. Louis, Mo.). Mice were maintained under anesthesia (2% isoflurane in oxygen, 1 dm^3/min), while baseline bioluminescence imaging was performed using a Caliper Xenogen IVIS® Spectrum (Perkin-Elmer, Alameda, Calif.). A series of BLI images was collected over 35 min using the following settings: auto exposure time, f-stop=2, Field of view=D, binning=4 (medium). Light intensity-time curves obtained from these images were analyzed using Living Image® software and light emission compared based on area under the light emission curve. Mice were injected intraperitoneally with either 120 μL of saline (vehicle), CA4P (provided by Mateon Therapeutics, Inc.; 120 mg/kg in saline as used in Mason et al., 2011 or analogue 24 (120 mg/kg) in saline immediately after baseline BLI. Bioluminescence imaging was repeated, with new luciferin injections 4, 24, and 48 h later.
Bioluminescence imaging (BLI) is a highly valuable modality with diverse applications in a wide range of biological models and systems. BLI is a particularly useful tool for assessing and quantifying in vivo blood flow reduction following treatment with a VDA. In the current study MCF7 human breast cancer cells, which had been previously transfected stably to express the enzyme luciferase, as well as two fluorescent proteins, as designated by MCF7-luc-GFP-mCherry were implanted in SCID mice. Since the luciferase substrate luciferin can be delivered to the tumor via the blood stream, damage to the vessels by a VDA can be quantified by measurement of reduced bioluminescence upon injection of luciferin. […]

Data set [2] has the same test system. The experiment in a line: Histological assessment of tumor necrosis (H&E). In kind it is in vivo, SCID mice. The conditions noted are these: 120 mg/kg, 48 h post treatment. As to the method: Following the 48 h BLI data acquisition, the tumors were excised, bisected and fixed in 4% paraformaldehyde solution. Tumor tissue was processed for paraffin embedding, sectioned and stained by routine methods. H&E staining was performed on one cross section from each tumor. Whole mount high resolution microscopy was obtained using a Zeiss Axioscan Z1 digital slide scanner. […] Thus, analogue 24 may be a therapeutically useful VDA.

Data set [3] relates to purified bovine brain tubulin. The conditions noted are these: Data from Pettit et al., 2000; read-out: Inhibition of tubulin polymerization IC50 (μM) ± SD; cited from earlier work.
The test system of data set [4] is purified bovine brain tubulin. As to the kind of experiment: Inhibition of tubulin polymerization (tubulin assembly). In kind it is biochemical. To be noted: 10 μM tubulin, extent of assembly after 20 min at 30° C.; read-out: Inhibition of tubulin polymerization IC50 (μM) ± SD. As to the method:
Inhibition of Tubulin Polymerization
Tubulin assembly experiments were performed in 0.25 mL reaction mixtures (final volume) (Hamel, 2003). The mixtures contained 1 mg/mL (10 μM) purified bovine brain tubulin, 0.8 M monosodium glutamate (pH 6.6), 4% (v/v) dimethyl sulfoxide, 0.4 mM GTP, and different compound concentrations. All reaction components except GTP were preincubated for 15 min at 30° C. in 0.24 mL. The mixtures were cooled to 0° C., and 10 μL of 10 mM GTP were added. Reaction mixtures were transferred to cuvettes held at 0° C. in Beckman DU-7400 and DU-7500 spectrophotometers equipped with electronic temperature controllers. The temperature was jumped to 30° C., taking about 30 s, and polymerization was followed at 350 nm for 20 min.

The next data set relates to tubulin. The experiment in a line: Colchicine binding assay (inhibition of [3H]colchicine binding to tubulin). To be noted: inhibitor at 5 μM; 1.0 μM tubulin, 5.0 μM [3H]colchicine. The method, then:
Inhibition of [^3H]colchicine binding to tubulin was measured using reaction mixtures (100 μL each) containing 1.0 μM tubulin, 5.0 μM [^3H]colchicine (from Perkin-Elmer), 5% (v/v) dimethyl sulfoxide, […], and components that stabilize the colchicine binding activity of tubulin (Hamel et al., 1981) (1.0 M monosodium glutamate [adjusted to pH 6.6 with HCl in a 2.0 M stock solution], 0.5 mg/mL bovine serum albumin, 0.1 M glucose-1-phosphate, 1.0 mM MgCl2, and 1.0 mM GTP). […] Reactions were stopped with 2.0 mL of ice-cold water, and the reaction mixtures were placed on ice. Each sample was poured onto a stack of two DEAE-cellulose filters (from Whatman), followed by 6 mL of ice-cold water. The samples were aspirated under reduced vacuum. The filters were washed three times with 2 mL water and placed into vials containing 5 mL of Biosafe II scintillation cocktail. Samples were counted 18 h later in a Beckman scintillation counter. Samples with inhibitors were compared to samples with no inhibitor, and percent inhibition was determined. All samples were corrected for the amount of radiolabel bound to the filters in the absence of tubulin.

Data set [5] relates to human cancer cell lines (DU-145, SK-OV-3, NCI-H460). As to the kind of experiment: SRB cytotoxicity, statements over the three human cancer cell lines. To be noted: all three human cancer cell lines. The class given is cell-based. As to the method:
as §1

A short description of data set [6]: Limited dose escalation study (tolerability). In kind it is in vivo, non-tumor bearing SCID mice. The conditions noted are these: dose of 120 mg/kg; dose escalation 60-150 mg/kg; MTD not yet determined.

For `COc1ccc(/C=C\c2cc(OC)c(OC)c(OC)c2)cc1OP(=O)(O)O` [CA4P, Combretastatin A-4P, reference compound], the GI50 turned out to be 2.82 nM in the data set on NCI-H460, 3.36 nM in the data set with DU-145 and 1.9 nM in the data set with SK-OV-3. Besides, the “reduction in bioluminescence (decrease compared to baseline or saline control)” value in [1] is reported as “approximately 80%”. Further, in data set [2], the “tumor necrosis (H&E staining) compared with saline control” value is “much more extensive necrosis”. Also, in data set [3], the IC50 was greater than 20 µM.
For `COc1cc(C2=CCCCCc3c2ccc(OC)c3OC)cc(OC)c1OC` [Compound 20, 1,2-Dimethoxy-5-(3′,4′,5′-trimethoxyphenyl)-benzocyclooct-5-ene], in data set [4], the IC50 came out at 4.5 ± 0.5 µM. For the same compound, the “% Inhibition of colchicine binding ± SD” value with tubulin is 31 ± 0.6 (5 μM) %. In addition, the GI50 in the data set on NCI-H460 (Homo sapiens, NCI-H460) is 395 nM; in the data set on DU-145 (Homo sapiens, DU-145), 448 nM; in the data set on SK-OV-3 (Homo sapiens, SK-OV-3), 512 nM.
For `COc1ccc2c(c1)CCCCC=C2c1cc(OC)c(OC)c(OC)c1` [Compound 21, 2-Methoxy-5-(3′,4′,5′-trimethoxyphenyl)-benzocyclooct-5-ene], the IC50 in data set [4] worked out at 3 ± 0.1 µM. Moreover, the “% Inhibition of colchicine binding ± SD” value with tubulin is 29 ± 5 (5 μM) %. The GI50 came to 431 nM in the data set with NCI-H460 (Homo sapiens, NCI-H460); 570 nM with DU-145 (Homo sapiens, DU-145); 400 nM with SK-OV-3 (Homo sapiens, SK-OV-3).
On to `COc1ccc2c(c1O)CCCCC=C2c1cc(OC)c(OC)c(OC)c1` [Compound 23, 1-Hydroxy-2-methoxy-5-(3′,4′,5′-trimethoxyphenyl)-benzocyclooct-5-ene], for which the IC50 in data set [4] was determined as 1.2 µM. In the data set on tubulin, the “% Inhibition of colchicine binding ± SD” value is 78%. Besides, the GI50 in the data set on NCI-H460 (Homo sapiens, NCI-H460) amounted to 107 nM; in the data set with DU-145 (Homo sapiens, DU-145), 105 nM; in the data set on SK-OV-3 (Homo sapiens, SK-OV-3), 81.1 nM. Besides, the “GI50 values / cytotoxicity range in words” value in data set [5] is “submicromolar”.
`COc1cc(C2=CCCCCc3c2ccc(OC)c3OP(=O)([O-])[O-])cc(OC)c1OC.[Na+].[Na+]` [Compound 24, Sodium 2-methoxy-5-(3′,4′,5′-trimethoxyphenyl)-benzocyclooct-5-en-1-yl phosphate]: in data set [4], the IC50 is greater than 20 µM. The 50% growth inhibitory concentration (GI50) with NCI-H460 (Homo sapiens, NCI-H460) was found to be 26 nM; in the data set with DU-145 (Homo sapiens, DU-145) it was 41 nM; in the data set with SK-OV-3 (Homo sapiens, SK-OV-3) it was 36.6 nM. In [5], the “GI50 values / cytotoxicity range in words” value is reported as “submicromolar”. The “bioluminescence intensity at 24 and 48 h” value in [1] (120 mg/kg ip, 24 and 48 h post administration, phosphate) is “the effect continued at both 24 and 48 h; also recorded: remained significantly below baseline values”. Besides, in data set [1] (120 mg/kg, 4 h post administration, phosphate), the “vascular shutdown / reduction of blood flow as evidenced by BLI” value was “significant vascular shutdown; also recorded: significant in vivo reduction of blood flow”. In addition, the “reduction in bioluminescence (decrease compared to baseline or saline control)” value in data set [1] is recorded as “approximately 80%”. Also, the “tumor necrosis (H&E staining) compared with saline control” value in [2] is “much more extensive necrosis”. For the same compound, the tolerability of dose entry in data set [6] is on record as “tolerated”.
Regarding `COc1cc(C2=CCc3c2ccc(OC)c3OC)cc(OC)c1OC` [Compound 28, 6,7-Dimethoxy-3-(3′,4′,5′-trimethoxyphenyl)-1H-indene], in [4], the IC50 is greater than 20 µM. Further, the GI50 with NCI-H460 (Homo sapiens, NCI-H460) was 42200 nM; in the data set on DU-145 (Homo sapiens, DU-145) it was 34600 nM; in the data set with SK-OV-3 (Homo sapiens, SK-OV-3) it was 9460 nM.
The like results for `COc1ccc2c(c1)CC=C2c1cc(OC)c(OC)c(OC)c1` [Compound 29, 6-Methoxy-3-(3′,4′,5′-trimethoxyphenyl)-1H-indene] were, in that order, greater than 20 µM, 4020 nM, 4660 nM and 6150 nM.
Consider `COc1ccc2c(c1O)CC=C2c1cc(OC)c(OC)c(OC)c1` [Compound 31, 6-Methoxy-3-(3′,4′,5′-trimethoxyphenyl)-1H-inden-7-ol], for which the IC50 in data set [4] was 11 µM. In the data set on tubulin, the “% Inhibition of colchicine binding ± SD” value was 17 ± 5 (5 μM) %. In addition, the GI50 with NCI-H460 (Homo sapiens, NCI-H460) was determined as 388 nM; in the data set with DU-145 (Homo sapiens, DU-145), 362 nM; in the data set with SK-OV-3 (Homo sapiens, SK-OV-3) it was 704 nM.
For `COc1cc(C2=CCc3c2ccc(OC)c3OP(=O)(O)O)cc(OC)c1OC` [Compound 32, Sodium 6-methoxy-3-(3′,4′,5′-trimethoxyphenyl)-1H-inden-7-yl phosphate], the IC50 in [4] is greater than 20 µM. Also, the GI50 in the data set with NCI-H460 (Homo sapiens, NCI-H460) worked out at 1500 nM; with DU-145 (Homo sapiens, DU-145), 3340 nM; in the data set with SK-OV-3 (Homo sapiens, SK-OV-3), 334 nM.
Take `COc1ccc2c(c1O)CCCC=C2c1cc(OC)c(OC)c(OC)c1` [KGP18, reference compound]: the IC50 in data set [4] stood at 1.4 µM. For the same compound, the GI50 was determined as 0.0418 nM in the data set on NCI-H460, 0.0249 nM in the data set on DU-145 and 0.0543 nM with SK-OV-3. For the same compound, the entries for the “GI50 values / cytotoxicity range in words” value in data set [5] and in data set [5] (listed as KPG18) were “subnanomolar” and “sub-nM”, respectively.
